Data from a compilation of properties of binary mixtures (doi:10.1039/c7cp04592a).

Experiment: xn = mol fraction of the nth substance listed
Conditions: 100 kPa

CC[NH3+].O=[N+]([O-])[O-] + CC#N
Conditions	electrical conductivity [S/m]	viscosity [mPa·s]
278 K, x1 = 0.1	1.12	–
278 K, x1 = 0.2	2.29	–
278 K, x1 = 0.5	2.85	–
278 K, x1 = 0.7	2	–
278 K, x1 = 0.9	1.59	–
288 K, x1 = 0.1	1.32	–
288 K, x1 = 0.2	2.85	–
288 K, x1 = 0.3	3.41	–
288 K, x1 = 0.5	3.77	–
288 K, x1 = 0.9	2.27	–
288.06 K, x1 = 0.6	–	13.65
288.06 K, x1 = 0.8	–	31.4
288.06 K, x1 = 0.9	–	40.5
288.06 K, x1 = 1	–	44.4
288.07 K, x1 = 0.1	–	0.815
288.09 K, x1 = 0.2	–	1.615
288.09 K, x1 = 0.4	–	5.47
288.09 K, x1 = 0.5	–	8.6
293.06 K, x1 = 0.4	–	4.9
293.07 K, x1 = 0.2	–	1.458
293.08 K, x1 = 0.8	–	26.09
293.08 K, x1 = 0.9	–	34
293.08 K, x1 = 0.98	–	36.9
293.08 K, x1 = 1	–	37.2
293.09 K, x1 = 0.5	–	7.45
293.09 K, x1 = 0.6	–	11.54
293.1 K, x1 = 0.1	–	0.754
293.11 K, x1 = 0.7	–	17.86
298 K, x1 = 0.1	1.69	0.685
298 K, x1 = 0.2	3.96	1.374
298 K, x1 = 0.3	4.71	2.451
298 K, x1 = 0.4	–	4.07
298 K, x1 = 0.5	5	6.37
298 K, x1 = 0.6	–	9.92
298 K, x1 = 0.8	–	20.97
298 K, x1 = 0.9	3.14	27.58
298 K, x1 = 0.98	–	32
298 K, x1 = 1	2.26	32.7
298.05 K, x1 = 0.8	–	21.52
298.07 K, x1 = 1	–	33.9
298.08 K, x1 = 0.7	–	15.22
298.08 K, x1 = 0.9	–	28.01
298.11 K, x1 = 0.3	–	2.463
298.11 K, x1 = 0.4	–	4.11
298.11 K, x1 = 0.5	–	6.46
298.13 K, x1 = 0.6	–	10.08
298.14 K, x1 = 0.1	–	0.698
303.08 K, x1 = 0.7	–	12.25
303.09 K, x1 = 0.3	–	2.396
303.1 K, x1 = 0.1	–	0.651
303.11 K, x1 = 0.4	–	4.16
303.11 K, x1 = 0.5	–	6.13
303.11 K, x1 = 0.6	–	8.74
303.11 K, x1 = 0.9	–	24.88
303.12 K, x1 = 0.2	–	1.16
303.13 K, x1 = 1	–	30.58
303.14 K, x1 = 0.98	–	29.95
303.16 K, x1 = 0.8	–	17.9
308 K, x1 = 0.1	2.38	–
308 K, x1 = 0.3	6.28	–
308 K, x1 = 0.5	6.3	–
308 K, x1 = 0.9	4.21	–
308 K, x1 = 1	3.07	–
308.11 K, x1 = 1	–	26.5
308.12 K, x1 = 0.4	–	3.98
308.13 K, x1 = 0.2	–	1.074
308.14 K, x1 = 0.98	–	24.9
308.15 K, x1 = 0.5	–	5.77
308.16 K, x1 = 0.1	–	0.618

CC#N + CC[NH3+].O=[N+]([O-])[O-]
x2 = 0
Conditions	viscosity [mPa·s]
288.07 K	0.408
293.1 K	0.371
298 K	0.35
298.12 K	0.352
303.13 K	0.321
